From EP3046573B1, “AMYLIN ANALOGUES” (Zealand Pharma A/S, priority 2013, dated 2015)
Like-named read-outs stand apart in the source and are kept apart here. Numbered stars: 1 amine (or outer) side, 2 acyl side, 3 side chain; on linkers, the order of the positions; unused ones are H or OH. Bridge positions count the residues as written; N and C are the ends. Square brackets hold non-standard residues; d marks the D form. Peptide text beside a SMILES is read from it. * marks the point of attachment. C20 diacid = O=C(O)CCCCCCCCCCCCCCCCCCC(=O)*; γGlu = O=C(O)[C@H](CCC(=O)[*:2])N[*:1]; NMeI = CC[C@H](C)[C@H](NC)C(=O)O; Sar = CNCC(=O)O

Columns and labels:
[1] = Solubility assessment (turbidity absorbance at 325 nm); assay type: physicochemical; conditions: stock 2 mg/ml diluted 1:1, ambient temperature (typically 25°C), n=1; for Solubility, Acetate buffer pH 4: 100 mM acetate buffer pH 4.0; for Solubility, Acetate buffer pH 5: 100 mM acetate buffer pH 5.0; for Solubility, Histidine buffer pH 6: 100 mM histidine buffer pH 6.0; for Solubility, Histidine buffer pH 7: 100 mM histidine buffer pH 7.0; for Solubility, Phosphate buffer pH 6: 100 mM phosphate buffer pH 6.0; for Solubility, Phosphate buffer pH 7: 100 mM phosphate buffer pH 7.0; for Solubility, Phosphate buffer pH 7.5: 100 mM phosphate buffer pH7.5
In short: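 Turbidity read as absorbance at 325 nm (also 280 nm), single samples at ambient temperature (typically 25°C); ≤ 0.02 units counts as ≥ 1 mg/ml soluble. Samples made by 1:1 dilution of a 2 mg/ml acidic stock into 100 mM acetate, histidine or phosphate buffers, pH 4.0–7.5.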

[2] = biological target: T1, human calcitonin receptor (hCTR2) (Homo sapiens, UniProt P30988); test: hCTR2 assay: induction of cAMP (AlphaScreen cAMP Assay kit) in COS7 cells expressing hCTR2; assay type: cell-based
T1 construct: expressed in transfected cells
T1 sequence (P30988 25-474): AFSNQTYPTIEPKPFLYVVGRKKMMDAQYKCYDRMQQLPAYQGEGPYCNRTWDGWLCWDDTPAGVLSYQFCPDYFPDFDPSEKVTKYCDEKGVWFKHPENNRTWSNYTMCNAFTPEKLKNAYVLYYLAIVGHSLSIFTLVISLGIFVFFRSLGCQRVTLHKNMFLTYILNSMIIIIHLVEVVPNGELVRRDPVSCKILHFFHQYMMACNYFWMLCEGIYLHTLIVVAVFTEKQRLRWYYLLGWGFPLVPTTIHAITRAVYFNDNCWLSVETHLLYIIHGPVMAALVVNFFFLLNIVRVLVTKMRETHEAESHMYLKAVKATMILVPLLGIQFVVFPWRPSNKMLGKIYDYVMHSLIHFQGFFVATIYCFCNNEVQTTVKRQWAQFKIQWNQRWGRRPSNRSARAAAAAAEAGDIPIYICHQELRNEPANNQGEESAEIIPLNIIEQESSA
In short: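 Peptide-induced cAMP in hCTR2-expressing COS7 cells, 15 min at 37° C with phosphodiesterase inhibitor IBMX (100 µM), detected by AlphaScreen; potency from 4PL curves.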

SMILES: CC[C@@H](C)[C@@H](NC(=O)[C@H](C)NC(=O)CN(C)C(=O)[C@H](Cc1ccccc1)NC(=O)[C@H](CC(N)=O)NC(=O)[C@H](CC(N)=O)NC(=O)[C@H](CO)NC(=O)[C@H](CO)NC(=O)[C@H](Cc1c[nH]cn1)NC(=O)[C@H](Cc1c[nH]cn1)NC(=O)[C@H](CC(C)C)NC(=O)[C@H](Cc1ccccc1)NC(=O)[C@H](CCC(=O)O)NC(=O)[C@H](C)NC(=O)[C@H](CC(C)C)NC(=O)[C@H](CCCNC(=N)N)NC(=O)[C@H](CCC(N)=O)NC(=O)[C@@H](NC(=O)[C@H](C)NC(=O)[C@@H]1CSSC[C@H](NC(=O)[C@H](CCCNC(=N)N)NC(=O)CC[C@H](NC(=O)CCCCCCCCCCCCCCCCCCC(=O)O)C(=O)O)C(=O)N[C@@H](CC(N)=O)C(=O)N[C@@H]([C@@H](C)O)C(=O)N[C@@H](C)C(=O)N[C@@H]([C@@H](C)O)C(=O)N1)[C@@H](C)O)C(=O)N[C@@H](CC(C)C)C(=O)N[C@@H](CO)C(=O)N[C@@H](CO)C(=O)N[C@H](C(=O)N[C@@H](CC(N)=O)C(=O)N[C@H](C(=O)NCC(=O)N[C@@H](CO)C(=O)N[C@@H](CC(N)=O)C(=O)N[C@H](C(=O)N1CCC[C@H]1C(N)=O)[C@@H](C)O)C(C)C)[C@@H](C)O [Compound 28, [19CD]-isoGlu-RC()NTATC()ATQRLAEFLHHSSNNF-Gly(Me)-A-DIle-LSSTNVGSNTP-NH2] ({C20 diacid-γGlu}-RCNTATCATQRLAEFLHHSSNNF[Sar]A[dI]LSSTNVGSNTP-NH2; disulfide 2-7)
- Solubility, Acetate buffer pH 4 [1]: SS (SS indicates solubility ≥ 1mg/ml)
- Solubility, Acetate buffer pH 5 [1]: SS (SS indicates solubility ≥ 1mg/ml)
- Solubility, Histidine buffer pH 6 [1]: SS (SS indicates solubility ≥ 1mg/ml)
- Solubility, Histidine buffer pH 7 [1]: SS (SS indicates solubility ≥ 1mg/ml)
- Solubility, Phosphate buffer pH 6 [1]: SS (SS indicates solubility ≥ 1mg/ml)
- Solubility, Phosphate buffer pH 7 [1]: SS (SS indicates solubility ≥ 1mg/ml)
- Solubility, Phosphate buffer pH 7.5 [1]: SS (SS indicates solubility ≥ 1mg/ml)
- EC50 [2]: 0.16 nM

SMILES: CC[C@H](C)[C@@H](C(=O)N[C@@H](CC(C)C)C(=O)N[C@@H](CO)C(=O)N[C@@H](CO)C(=O)N[C@H](C(=O)N[C@@H](CC(N)=O)C(=O)N[C@H](C(=O)NCC(=O)N[C@@H](CO)C(=O)N[C@@H](CC(N)=O)C(=O)N[C@H](C(=O)N1CCC[C@H]1C(N)=O)[C@@H](C)O)C(C)C)[C@@H](C)O)N(C)C(=O)CN(C)C(=O)[C@H](Cc1ccccc1)NC(=O)[C@@H](CC(N)=O)NC(=O)[C@H](CC(N)=O)NC(=O)[C@H](CO)NC(=O)[C@H](CO)NC(=O)[C@H](Cc1c[nH]cn1)NC(=O)[C@H](Cc1c[nH]cn1)NC(=O)[C@H](CC(C)C)NC(=O)[C@H](Cc1ccccc1)NC(=O)[C@H](CCC(=O)O)NC(=O)[C@H](C)NC(=O)[C@H](CC(C)C)NC(=O)[C@H](CCCNC(=N)N)NC(=O)[C@H](CCC(N)=O)NC(=O)[C@@H](NC(=O)[C@H](C)NC(=O)[C@@H]1CSSC[C@H](NC(=O)[C@H](CCCNC(=N)N)NC(=O)CC[C@H](NC(=O)CCCCCCCCCCCCCCCCCCC(=O)O)C(=O)O)C(=O)N[C@@H](CC(N)=O)C(=O)N[C@@H]([C@@H](C)O)C(=O)N[C@@H](C)C(=O)N[C@@H]([C@@H](C)O)C(=O)N1)[C@@H](C)O [Compound 36, [19CD]-isoGlu-RC()NTATC()ATQRLAEFLHHSSN-DAsn-F-Gly(Me)-Ile(Me)-LSSTNVGSNTP-NH2] ({C20 diacid-γGlu}-RCNTATCATQRLAEFLHHSSN[dN]F[Sar][NMeI]LSSTNVGSNTP-NH2; disulfide 2-7)
- Solubility, Acetate buffer pH 4 [1]: SS (SS indicates solubility ≥ 1mg/ml)
- Solubility, Acetate buffer pH 5 [1]: SS (SS indicates solubility ≥ 1mg/ml)
- Solubility, Histidine buffer pH 6 [1]: SS (SS indicates solubility ≥ 1mg/ml)
- Solubility, Histidine buffer pH 7 [1]: SS (SS indicates solubility ≥ 1mg/ml)
- Solubility, Phosphate buffer pH 6 [1]: SS (SS indicates solubility ≥ 1mg/ml)
- Solubility, Phosphate buffer pH 7 [1]: SS (SS indicates solubility ≥ 1mg/ml)
- Solubility, Phosphate buffer pH 7.5 [1]: SS (SS indicates solubility ≥ 1mg/ml)
- EC50 ([2]; cAMP induction in COS7 cells expressing hCTR2, average of a minimum of 3 determinations, read-out: hCTR2 EC50): 0.17 nM

SMILES: CC[C@H](C)[C@@H](C(=O)N[C@@H](CC(C)C)C(=O)N[C@@H](CO)C(=O)N[C@@H](CO)C(=O)N[C@@H](CC(N)=O)C(=O)N[C@H](C(=O)NCC(=O)N[C@@H](CO)C(=O)N[C@@H](CC(N)=O)C(=O)N[C@H](C(=O)N1CCC[C@H]1C(N)=O)[C@@H](C)O)C(C)C)N(C)C(=O)[C@H](C)NC(=O)CN(C)C(=O)[C@H](Cc1ccccc1)NC(=O)[C@H](CC(N)=O)NC(=O)[C@H](CC(N)=O)NC(=O)[C@H](CO)NC(=O)[C@H](CO)NC(=O)[C@H](Cc1c[nH]cn1)NC(=O)[C@H](Cc1c[nH]cn1)NC(=O)[C@H](CC(C)C)NC(=O)[C@H](Cc1ccccc1)NC(=O)[C@H](CCC(=O)O)NC(=O)[C@H](C)NC(=O)[C@H](CC(C)C)NC(=O)[C@H](CCCNC(=N)N)NC(=O)[C@H](CCC(N)=O)NC(=O)[C@@H](NC(=O)[C@H](C)NC(=O)[C@@H]1CSSC[C@H](NC(=O)[C@H](CCCNC(=N)N)NC(=O)CC[C@H](NC(=O)CCCCCCCCCCCCCCCCCCC(=O)O)C(=O)O)C(=O)N[C@@H](CC(N)=O)C(=O)N[C@@H]([C@@H](C)O)C(=O)N[C@@H](C)C(=O)N[C@@H]([C@@H](C)O)C(=O)N1)[C@@H](C)O [Compound 37, [19CD]-isoGlu-RC()NTATC()ATQRLAEFLHHSSNNF-Gly(Me)-A-Ile(Me)-LSSNVGSNTP-NH2] ({C20 diacid-γGlu}-RCNTATCATQRLAEFLHHSSNNF[Sar]A[NMeI]LSSNVGSNTP-NH2; disulfide 2-7)
- Solubility, Acetate buffer pH 4 [1]: SS (SS indicates solubility ≥ 1mg/ml)
- Solubility, Acetate buffer pH 5 [1]: SS (SS indicates solubility ≥ 1mg/ml)
- Solubility, Histidine buffer pH 6 [1]: SS (SS indicates solubility ≥ 1mg/ml)
- Solubility, Histidine buffer pH 7 [1]: SS (SS indicates solubility ≥ 1mg/ml)
- Solubility, Phosphate buffer pH 6 [1]: SS (SS indicates solubility ≥ 1mg/ml)
- Solubility, Phosphate buffer pH 7 [1]: SS (SS indicates solubility ≥ 1mg/ml)
- Solubility, Phosphate buffer pH 7.5 [1]: SS (SS indicates solubility ≥ 1mg/ml)
- EC50 [2]: 0.39 nM
